# According to patent US20230085307A1, “PYRIDAZINONE COMPOUND AND HERBICIDE” (NISSAN CHEMICAL CORPORATION, priority 2019, published 2023):
# How the values were obtained:
# [1] = tested on: late watergrass; assay: Test Example 1: herbicidal activity, application before weed generation under submerged conditions (Table 16, symbol A); format: in vivo, late watergrass (Echinochloa oryzicola); conditions: amount of applied herbicide 320 g/ha
# In short: (§1)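 Submerged Wagner pots (alluvial soil, 4 cm water) sown with weed seeds and planted with 2.5-leaf rice seedlings; emulsifiable concentrate diluted in water applied to water surface on sowing day. Held in greenhouse at 25-30 °C; injury scored 0-5 by herbicidal rate after three weeks.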
# [2] = tested on: Japanese bulrush; assay: Test Example 1: herbicidal activity, application before weed generation under submerged conditions (Table 16, symbol B); format: in vivo, Japanese bulrush (Schoenoplectus juncoides); conditions: amount of applied herbicide 320 g/ha
# In short: as §1
# [3] = tested on: oval-leafed pondweed; assay: Test Example 1: herbicidal activity, application before weed generation under submerged conditions (Table 16, symbol C); format: in vivo, oval-leafed pondweed (Monochoria vaginalis); conditions: amount of applied herbicide 320 g/ha
# In short: as §1
# [4] = tested on: barnyard grass; assay: Test Example 3: herbicidal effect by foliage application, Wagner pot (Table 18, symbol H); format: in vivo, barnyard grass (Echinochloa crus-galli); conditions: amount of applied herbicide 320 g/ha
# In short: (§2)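 Plants were sown in alluvial soil held under 0.1–0.5 cm standing water and grown 14 days in a greenhouse at 25–30 °C. An emulsifiable formulation, water-diluted to the set dose, was then sprayed onto the foliage, and effects were scored three weeks later using previously defined criteria.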
# [5] = tested on: Chinese sprangletop; assay: Test Example 3: herbicidal effect by foliage application, Wagner pot (Table 18, symbol D); format: in vivo, chinese sprangletop (Leptochloa chinensis); conditions: amount of applied herbicide 320 g/ha
# In short: as §2
# [6] = tested on: rice flat sedge; assay: Test Example 3: herbicidal effect by foliage application, Wagner pot (Table 18, symbol E); format: in vivo, rice flat sedge (Cyperus iria); conditions: amount of applied herbicide 320 g/ha
# In short: as §2
# [7] = tested on: southern crabgrass; assay: Test Example 4: herbicidal effect by soil treatment (Table 19, symbol F); format: in vivo, southern crabgrass (Digitaria ciliaris); conditions: amount of applied herbicide 320 g/ha
# In short: (§3)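 Soil-surface application: an emulsion agent diluted with water to the predetermined dose is sprayed uniformly over seeds lying under roughly 1.5 cm of sterilized diluvial soil. Boxes stay in a greenhouse at 25° C. to 30° C. Three weeks later, each species is graded on previously defined criteria.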
# [8] = tested on: green foxtail; assay: Test Example 4: herbicidal effect by soil treatment (Table 19, symbol G); format: in vivo, green foxtail (Setaria viridis); conditions: amount of applied herbicide 320 g/ha
# In short: as §3
# [9] = tested on: barnyard grass; assay: Test Example 4: herbicidal effect by soil treatment (Table 19, symbol H); format: in vivo, barnyard grass (Echinochloa crus-galli); conditions: amount of applied herbicide 320 g/ha
# In short: as §3
# [10] = tested on: wild oat; assay: Test Example 4: herbicidal effect by soil treatment (Table 19, symbol I); format: in vivo, wild oat (Avena fatua); conditions: amount of applied herbicide 320 g/ha
# In short: as §3
# [11] = tested on: blackgrass; assay: Test Example 4: herbicidal effect by soil treatment (Table 19, symbol J); format: in vivo, blackgrass (Alopecurus myosuroides); conditions: amount of applied herbicide 320 g/ha
# In short: as §3
# [12] = tested on: Italian ryegrass; assay: Test Example 4: herbicidal effect by soil treatment (Table 19, symbol K); format: in vivo, Italian ryegrass (Lolium multiflorum); conditions: amount of applied herbicide 320 g/ha
# In short: as §3
# [13] = tested on: windgrass; assay: Test Example 4: herbicidal effect by soil treatment (Table 19, symbol L); format: in vivo, windgrass (Apera spica-venti); conditions: amount of applied herbicide 320 g/ha
# In short: as §3
# [14] = tested on: velvetleaf; assay: Test Example 4: herbicidal effect by soil treatment (Table 19, symbol M); format: in vivo, velvetleaf (Abutilon theophrasti); conditions: amount of applied herbicide 320 g/ha
# In short: as §3
# [15] = tested on: redroot pigweed; assay: Test Example 4: herbicidal effect by soil treatment (Table 19, symbol N); format: in vivo, redroot pigweed (Amaranthus retroflexus); conditions: amount of applied herbicide 320 g/ha
# In short: as §3
# [16] = tested on: lambsquarters; assay: Test Example 4: herbicidal effect by soil treatment (Table 19, symbol O); format: in vivo, lambsquarters (Chenopodium album); conditions: amount of applied herbicide 320 g/ha
# In short: as §3
# [17] = tested on: chickweed; assay: Test Example 4: herbicidal effect by soil treatment (Table 19, symbol P); format: in vivo, common chickweed (Stellaria media); conditions: amount of applied herbicide 320 g/ha
# In short: as §3
# [18] = tested on: false cleavers; assay: Test Example 4: herbicidal effect by soil treatment (Table 19, symbol Q); format: in vivo, false cleavers (Galium spurium); conditions: amount of applied herbicide 320 g/ha
# In short: as §3
# [19] = tested on: persian speedwell; assay: Test Example 4: herbicidal effect by soil treatment (Table 19, symbol R); format: in vivo, Persian speedwell (Veronica persica); conditions: amount of applied herbicide 320 g/ha
# In short: as §3
# [20] = tested on: southern crabgrass; assay: Test Example 5: herbicidal effect by foliage application, plastic box (Table 20, symbol F); format: in vivo, southern crabgrass (Digitaria ciliaris); conditions: foliage application, 320 g/ha, evaluated 3 weeks after application
# In short: (§4)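 Sow seeds spot-wise in sterilized diluvial soil; cover with ~1.5 cm soil. Grow 14 days in greenhouse, 25° C. to 30° C. Spray foliage with emulsion diluted to predetermined amount. Rate effect after 3 weeks.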
# [21] = tested on: green foxtail; assay: Test Example 5: herbicidal effect by foliage application, plastic box (Table 20, symbol G); format: in vivo, green foxtail (Setaria viridis); conditions: foliage application, 320 g/ha, evaluated 3 weeks after application
# In short: as §4
# [22] = tested on: barnyard grass; assay: Test Example 5: herbicidal effect by foliage application, plastic box (Table 20, symbol H); format: in vivo, barnyard grass (Echinochloa crus-galli); conditions: foliage application, 320 g/ha, evaluated 3 weeks after application
# In short: as §4
# [23] = tested on: wild oat; assay: Test Example 5: herbicidal effect by foliage application, plastic box (Table 20, symbol I); format: in vivo, wild oat (Avena fatua); conditions: foliage application, 320 g/ha, evaluated 3 weeks after application
# In short: as §4
# [24] = tested on: blackgrass; assay: Test Example 5: herbicidal effect by foliage application, plastic box (Table 20, symbol J); format: in vivo, blackgrass (Alopecurus myosuroides); conditions: foliage application, 320 g/ha, evaluated 3 weeks after application
# In short: as §4
# [25] = tested on: Italian ryegrass; assay: Test Example 5: herbicidal effect by foliage application, plastic box (Table 20, symbol K); format: in vivo, Italian ryegrass (Lolium multiflorum); conditions: foliage application, 320 g/ha, evaluated 3 weeks after application
# In short: as §4
# [26] = tested on: windgrass; assay: Test Example 5: herbicidal effect by foliage application, plastic box (Table 20, symbol L); format: in vivo, windgrass (Apera spica-venti); conditions: foliage application, 320 g/ha, evaluated 3 weeks after application
# In short: as §4
# [27] = tested on: velvetleaf; assay: Test Example 5: herbicidal effect by foliage application, plastic box (Table 20, symbol M); format: in vivo, velvetleaf (Abutilon theophrasti); conditions: foliage application, 320 g/ha, evaluated 3 weeks after application
# In short: as §4
# [28] = tested on: redroot pigweed; assay: Test Example 5: herbicidal effect by foliage application, plastic box (Table 20, symbol N); format: in vivo, redroot pigweed (Amaranthus retroflexus); conditions: foliage application, 320 g/ha, evaluated 3 weeks after application
# In short: as §4
# [29] = tested on: lambsquarters; assay: Test Example 5: herbicidal effect by foliage application, plastic box (Table 20, symbol O); format: in vivo, lambsquarters (Chenopodium album); conditions: foliage application, 320 g/ha, evaluated 3 weeks after application
# In short: as §4
# [30] = tested on: chickweed; assay: Test Example 5: herbicidal effect by foliage application, plastic box (Table 20, symbol P); format: in vivo, common chickweed (Stellaria media); conditions: foliage application, 320 g/ha, evaluated 3 weeks after application
# In short: as §4
# [31] = tested on: false cleavers; assay: Test Example 5: herbicidal effect by foliage application, plastic box (Table 20, symbol Q); format: in vivo, false cleavers (Galium spurium); conditions: foliage application, 320 g/ha, evaluated 3 weeks after application
# In short: as §4
# [32] = tested on: persian speedwell; assay: Test Example 5: herbicidal effect by foliage application, plastic box (Table 20, symbol R); format: in vivo, Persian speedwell (Veronica persica); conditions: foliage application, 320 g/ha, evaluated 3 weeks after application
# In short: as §4
structure (smiles),measurement,setting,value
COc1ccc2c(-c3c(O)c(C)nn(C)c3=O)c(-c3ccccc3OC)oc2c1 [10-001],"Herbicidal effect, A: late watergrass",[1],0 (Herbicidal rate of 5% or less (almost no effect))
same,"Herbicidal effect, B: Japanese bulrush",[2],0 (Herbicidal rate of 5% or less (almost no effect))
same,"Herbicidal effect, C: oval-leafed pondweed",[3],3 (Herbicidal rate of 40% or more and less than 70%)
same,"Herbicidal effect on H (barnyard grass), foliage application",[4],3 (Herbicidal rate of 40% or more and less than 70%)
same,"Herbicidal effect on D (Chinese sprangletop), foliage application",[5],0 (Herbicidal rate of 5% or less (almost no effect))
same,"Herbicidal effect on E (rice flat sedge), foliage application",[6],2 (Herbicidal rate of 20% or more and less than 40%)
same,"F: southern crabgrass, herbicidal effect grade",[7],0 (Herbicidal rate of 5% or less (almost no effect))
same,"G: green foxtail, herbicidal effect grade",[8],0 (Herbicidal rate of 5% or less (almost no effect))
same,"H: barnyard grass, herbicidal effect grade",[9],0 (Herbicidal rate of 5% or less (almost no effect))
same,"I: wild oat, herbicidal effect grade",[10],0 (Herbicidal rate of 5% or less (almost no effect))
same,"J: blackgrass, herbicidal effect grade",[11],0 (Herbicidal rate of 5% or less (almost no effect))
same,"K: Italian ryegrass, herbicidal effect grade",[12],0 (Herbicidal rate of 5% or less (almost no effect))
same,"L: windgrass, herbicidal effect grade",[13],0 (Herbicidal rate of 5% or less (almost no effect))
same,"M: velvetleaf, herbicidal effect grade",[14],0 (Herbicidal rate of 5% or less (almost no effect))
same,"N: redroot pigweed, herbicidal effect grade",[15],0 (Herbicidal rate of 5% or less (almost no effect))
same,"O: lambsquarters, herbicidal effect grade",[16],0 (Herbicidal rate of 5% or less (almost no effect))
same,"P: chickweed, herbicidal effect grade",[17],0 (Herbicidal rate of 5% or less (almost no effect))
same,"Q: false cleavers, herbicidal effect grade",[18],0 (Herbicidal rate of 5% or less (almost no effect))
same,"R: persian speedwell, herbicidal effect grade",[19],5 (Herbicidal rate of 90% or more (almost completely withered))
same,F (southern crabgrass) herbicidal effect grade,[20],2 (Herbicidal rate of 20% or more and less than 40%)
same,G (green foxtail) herbicidal effect grade,[21],3 (Herbicidal rate of 40% or more and less than 70%)
same,H (barnyard grass) herbicidal effect grade,[22],3 (Herbicidal rate of 40% or more and less than 70%)
same,I (wild oat) herbicidal effect grade,[23],0 (Herbicidal rate of 5% or less (almost no effect))
same,J (blackgrass) herbicidal effect grade,[24],0 (Herbicidal rate of 5% or less (almost no effect))
same,K (Italian ryegrass) herbicidal effect grade,[25],0 (Herbicidal rate of 5% or less (almost no effect))
same,L (windgrass) herbicidal effect grade,[26],3 (Herbicidal rate of 40% or more and less than 70%)
same,M (velvetleaf) herbicidal effect grade,[27],3 (Herbicidal rate of 40% or more and less than 70%)
same,N (redroot pigweed) herbicidal effect grade,[28],3 (Herbicidal rate of 40% or more and less than 70%)
same,O (lambsquarters) herbicidal effect grade,[29],4 (Herbicidal rate of 70% or more and less than 90%)
same,P (chickweed) herbicidal effect grade,[30],5 (Herbicidal rate of 90% or more (almost completely withered))
same,Q (false cleavers) herbicidal effect grade,[31],4 (Herbicidal rate of 70% or more and less than 90%)
same,R (persian speedwell) herbicidal effect grade,[32],5 (Herbicidal rate of 90% or more (almost completely withered))
